The target in this experiment is human Pim-1 (Homo sapiens (Human), UniProt P11309). Kind of experiment: biochemical. Format: biochemical. As to the method: The human Pim-1 inhibitory activity of the test compounds was evaluated as follows.
(1) Purification of Human Pim-1
DNA fragment in which a His-Tag sequence and a translation termination sequence are added to the 3′-end of human Pim-1 translation sequence was amplified by PCR (Polymerase Chain Reaction), using human Pim-1 gene-inserted plasmid DNA (Kazusa DNA Laboratory, model number FXC11400) as a template. The amplified DNA fragment was fused with pGEx-6P-1 (GE Healthcare Japan, model number 27-4597-1) digested with BamHI and EcoRI using In-Fusion HD Cloning Kit (Takara Bio, model number 639649). […] The base sequence of Pim-1 cloned into vector was determined by Dye Terminator method using BigDye Terminator v3.1 Cycle Sequencing Kit (Applied Biosystems, model number 4337456). […] Escherichia coli BL21 (DE3) (Merck KGaA, model number 69449-4) transformed with human Pim-1-expressed plasmid DNA was cultured in 2×YT medium (Becton Dickinson, model number 2404020) at 30° C., until the optical concentration at 620 nm (OD620) reached 0.6, and then cultured overnight at 20° C. in the presence of 0.5 mmol/L isopropyl b-D-1-thiogalactopyranoside. After the completion of so the culture, the cells were collected and suspended in Homogenate Buffer (50 mmol/L Tris-HCl (pH 7.5), 500 mmol/L NaCl, 1% Tween20, complete, EDTA-free (Roche, model number 1873580)), and the suspended cells were lysed by passing through a microfluidizer M-110H (Mizuho Kogyo Co., Ltd.). The lysate was centrifuged at 10,100×g for 10 minutes, 4° C., and the supernatant was filtered through MILLEX-HV Filter (0.45 μm) (Millipore, SLHV033RS) to remove the cell residues. The filtrate was loaded onto complete His-Tag Purification Resin (Roche Diagnostics, model number 05 893 682 0.01). The column was washed with Equilibration Buffer-1 (50 mmol/L Tris-HCl (pH 7.5), 500 mmol/L NaCl, 1% Tween 20) containing 5 mmol/L Imidazole, followed by Equilibration Buffer-1 containing 50 mmol/L Imidazole, the human Pim-1 to which GST-Tag derived from pGEx-6P-1 was eluted with Equilibration Buffer-1 containing 150 mmol/L imidazole. […] The protease reaction was carried out by stirring overnight at 4° C., and the human Pim-1 in which the GST-Tag sequence was cleaved was eluted. The eluate was loaded onto a gel filtration column (Superdex-200 […] (GE Healthcare, model number 17-5175-01)) equilibrated with Equilibration Buffer-3 (50 mmol/L Tris-HCl (pH 7.5), 500 mmol/L NaCl, 0.05% Tween20, 0.5 mmol/L EDTA, 2 mmol/L DTT, 10% Glycerol), and eluted. The eluate was used as a human Pim-1 purified fraction.
The protein concentration of the human Pim-1 purified fraction was measured with Pierce 660 nm Protein Assay Reagent (Thermo Fisher Scientific, model number 22660). The purified fraction was rapidly frozen in liquid nitrogen, and then stored at −80° C. The His-Tag-added human Pim-1 was detected by Western blotting using a mouse anti-His monoclonal antibody (WAKO, model number 011-23091).
(2) Evaluation of Human Pim-1 Inhibitory Activity
The calculation of the Pim-1 inhibitory activity of the compound was performed using the following solution according to the protocol attached to ADP-Glo Kinase Assay (cat. V9102, Promega). The purified enzyme of human Pim-1 described above was used.
(i) Preparation of Solution
The kinase buffer solution (50 mmol/L HEPES (pH 7.5), 5 mmol/L MgCl2, 1 mmol/L DTT, 0.05% BSA) was prepared by dissolving HEPES (Jena Bioscience), MgCl2 (Sigma-Aldrich), DTT (Sigma-Aldrich) and BSA (Sigma-Aldrich) in purified water.
The ATP solution (288 μmol/L) was prepared by dissolving 100 mmol/L ATP (Promega) in the kinase buffer solution.

[1] abbreviates: Ki converted from IC50; purified human Pim-1, Pim2tide substrate, ADP-Glo; read-out: hPim1 Ki.
Setting [2] is: hPim1 Ki (nM), Ki converted from IC50; purified human Pim-1, Pim2tide substrate, ADP-Glo.

Where two headings read alike, the source gives them in different places.

As a reminder, the Ki is the dissociation constant of the complex between target and ligand, obtained from inhibition or displacement.

human Pim-1, sequence (P11309 whole entry): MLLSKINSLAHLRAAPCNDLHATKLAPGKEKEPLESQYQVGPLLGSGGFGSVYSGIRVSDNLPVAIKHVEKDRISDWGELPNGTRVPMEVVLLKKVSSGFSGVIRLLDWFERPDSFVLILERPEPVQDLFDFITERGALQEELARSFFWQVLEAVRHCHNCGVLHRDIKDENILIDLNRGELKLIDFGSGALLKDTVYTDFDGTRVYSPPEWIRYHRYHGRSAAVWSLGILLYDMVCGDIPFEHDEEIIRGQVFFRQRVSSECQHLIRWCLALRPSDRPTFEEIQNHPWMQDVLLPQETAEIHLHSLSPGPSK

With `C[C@]1(O)CC[C@@H](CCN2CCNC(=O)c3oc4ccc(C(F)(F)F)cc4c32)CC1` [Example 79], the Ki under setting [1] is 0.705 nM.
As to `C[C@]1(O)CC[C@H](CCN2CCNC(=O)c3oc4ccc(C(F)(F)F)cc4c32)CC1` [Example 80], the Ki under setting [1] came out at 0.205 nM.
On to `O=C1NCCN(CCC2CC3CCC(C2)O3)c2c1oc1ccc(C(F)(F)F)cc21` (stereo not shown) [Example 81], for which, under setting [1], the inhibition constant Ki came to 1.11 nM.
On the same count and under the same terms, to `O=C1NCCN(CCC2CC3(COC3)C2)c2c1oc1ccc(C(F)(F)F)cc21` [Example 82] belongs 2.06 nM; to `O=C1NCCN(CC[C@H]2CC[C@@H](O)CC2)c2c1oc1ccc(C(F)(F)F)cc21` [Example 83], 0.762 nM.
Still for that read-out and setting: then `O=C1NCCN(CC[C@H]2CC[C@@](O)(C(F)(F)F)CC2)c2c1oc1ccc(C(F)(F)F)cc21` [Example 84], with 0.236 nM.
As to `O=C1NCCN(CC[C@H]2CC[C@](O)(C(F)(F)F)CC2)c2c1oc1ccc(C(F)(F)F)cc21` [Example 85], the Ki under setting [1] is 4.08 nM.
Same read-out and setting: to `O=C1NCCN(CCC2CCC(C(=O)O)CC2)c2c1oc1ccc(C(F)(F)F)cc21` (stereo not shown) [Example 86] belongs 4.06 nM; to `O=C1NCCN(CCC2CCS(=O)(=O)CC2)c2c1oc1ccc(C(F)(F)F)cc21` [Example 87], 1.97 nM.
`O=C1NCCN(CCC2CCC(O)(CO)CC2)c2c1oc1ccc(C(F)(F)F)cc21` (stereo not shown) [Example 89]: under “read-out: hPim1 Ki; Ki converted from IC50; purified human Pim-1, Pim2tide substrate, ADP-Glo”, the Ki worked out at 0.0329 nM.
Take `O=C1NCCN(CC[C@H]2CC[C@](O)(CO)CC2)c2c1oc1ccc(C(F)(F)F)cc21` [Example 90, 1-(2-((1s,4s)-4-hydroxy-4-(hydroxymethyl)cyclohexyl)ethyl)-9-(trifluoromethyl)-1,2,3,4-tetrahydro-5H-benzofuro[3,2-e][1,4]diazepin-5-one]: the Ki under setting [1] worked out at 0.0091 nM.
In turn, `[2H]C1(O)CCC(CCN2CCNC(=O)c3oc4ccc(C(F)(F)F)cc4c32)CC1` (stereo not shown) [Example 92] displayed a Ki under setting [2] of 0.707 nM.
`CC1(C(=O)O)CCC(CCN2CCNC(=O)c3oc4ccc(C(F)(F)F)cc4c32)CC1` (stereo not shown) [Example 93]: the Ki under setting [1] stood at 5.15 nM.
The same measure, in the same setting: to `CC1(CO)CCC(CCN2CCNC(=O)c3oc4ccc(C(F)(F)F)cc4c32)CC1` (stereo not shown) [Example 94] belongs 0.129 nM; to `O=C1NCCN(CC(F)(F)[C@H]2CO[C@H](CO)CO2)c2c1oc1ccc(C(F)(F)F)cc21` [Example 95, 1-(2,2-difluoro-2-((2R,5R)-5-(hydroxymethyl)-1,4-dioxan-2-yl)ethyl)-9-(trifluoromethyl)-1,2,3,4-tetrahydro-5H-benzofuro[3,2-e][1,4]diazepin-5-one], 0.0443 nM.
Take `O=C1NCCN(CC(F)(F)[C@H]2CO[C@@H](CO)CO2)c2c1oc1ccc(C(F)(F)F)cc21` [Example 96]: the Ki under setting [1] amounted to 0.0283 nM.
Same read-out and setting: to `O=C1NCCN(CCC2CCC(CO)CC2)c2c1oc1ccc(C(F)(F)F)cc21` (stereo not shown) [Example 97] belongs 0.107 nM; to `CC(C)(O)C1CCC(CCN2CCNC(=O)c3oc4ccc(C(F)(F)F)cc4c32)CC1` (stereo not shown) [Example 98], 1.07 nM.
Under setting [2], `O=C1NCCN(CCC2CCC(C3(O)CC3)CC2)c2c1oc1ccc(C(F)(F)F)cc21` (stereo not shown) [Example 99] yielded a Ki of 0.0764 nM.
`CNC(=O)C1CCC(CCN2CCNC(=O)c3oc4ccc(C(F)(F)F)cc4c32)CC1` (stereo not shown) [Example 100]: the Ki under setting [1] was found to be 1 nM.
As to `CN(C)C(=O)C1CCC(CCN2CCNC(=O)c3oc4ccc(C(F)(F)F)cc4c32)CC1` (stereo not shown) [Example 101], the Ki under setting [1] was 0.775 nM.
Same read-out and setting: then `O=C1NCCN(CCC2CCC(O)(C(=O)O)CC2)c2c1oc1ccc(C(F)(F)F)cc21` (stereo not shown) [Example 102], with 5.47 nM; and `NC(=O)C1CCC(CCN2CCNC(=O)c3oc4ccc(C(F)(F)F)cc4c32)CC1` (stereo not shown) [Example 104], with 0.819 nM; and `O=C1NCCN(CCC2CCC(c3ncn[nH]3)CC2)c2c1oc1ccc(C(F)(F)F)cc21` (stereo not shown) [Example 105], with 0.607 nM.
Still for that read-out and setting: to `O=C1NCCN(CC(F)(F)[C@H]2CC[C@H](O)CC2)c2c1oc1ccc(C(F)(F)F)cc21` [Example 106, 1-(2,2-difluoro-2-((1r,4r)-4-hydroxycyclohexyl)ethyl)-9-(trifluoromethyl)-1,2,3,4-tetrahydro-5H-benzofuro[3,2-e][1,4]diazepin-5-one] belongs 0.0409 nM.
Same read-out and setting: to `O=C1NCCN(CC(F)(F)C2CCC(O)CC2)c2c1oc1ccc(C(F)(F)F)cc21` (stereo not shown) [Example 107, 1-(2,2-difluoro-2-(4-hydroxycyclohexyl)ethyl)-9-(trifluoromethyl)-1,2,3,4-tetrahydro-5H-benzofuro[3,2-e] [1,4]diazepin-5-one] belongs 0.0862 nM.
In the case of `O=C1NCCN(CC[C@H]2CC[C@](O)(CCO)CC2)c2c1oc1ccc(C(F)(F)F)cc21` [Example 108], under setting [1], the Ki worked out at 0.298 nM.
Still for that read-out and setting: then `O=C1NCCN(CC[C@H]2CC[C@@](O)(CCO)CC2)c2c1oc1ccc(C(F)(F)F)cc21` [Example 109], with 0.193 nM; and `O=C1NCCN(CCC2CCC(C3(O)CC3)CC2)c2c1oc1ccc(C(F)(F)F)cc21` (stereo not shown) [Example 110], with 0.133 nM.
With `O=C1NCCN(CCC2CCC(O)(C3(O)CC3)CC2)c2c1oc1ccc(C(F)(F)F)cc21` (stereo not shown) [Example 111], the Ki under setting [1] is 0.011 nM.
Take `COCC1(O)CCC(CCN2CCNC(=O)c3oc4ccc(C(F)(F)F)cc4c32)CC1` (stereo not shown) [Example 112]: the Ki under setting [1] was determined as 1.03 nM.
As for `O=C1NCCN(CCC23CC(CO)(C2)C3)c2c1oc1ccc(C(F)(F)F)cc21` [Example 113], the Ki under setting [1] stood at 0.726 nM.
Under setting [2], `O=C1NC2(CC2)CN(CCC2CCC(O)(CO)CC2)c2c1oc1ccc(C(F)(F)F)cc21` (stereo not shown) [Example 116] yielded an inhibition constant Ki of 0.0092 nM.
As for `O=C1NCCN(CCC2CC(CO)C2)c2c1oc1ccc(C(F)(F)F)cc21` (stereo not shown) [Example 117], the Ki under setting [1] worked out at 0.801 nM.
On the same count and under the same terms, to `O=C1NCCN(CC(F)(F)C2CCC(O)(CO)CC2)c2c1oc1ccc(C(F)(F)F)cc21` (stereo not shown) [Example 120] belongs 0.006 nM; to `N#CCC1(O)CCC(CCN2CCNC(=O)c3oc4ccc(C(F)(F)F)cc4c32)CC1` (stereo not shown) [Example 121], 0.705 nM.
For the molecule `CS(=O)(=O)CC1(O)CCC(CCN2CCNC(=O)c3oc4ccc(C(F)(F)F)cc4c32)CC1` (stereo not shown) [Example 122], the Ki under setting [1] came to 0.532 nM.
On the same count and under the same terms, to `CS(=O)(=O)C1CCC(CCN2CCNC(=O)c3oc4ccc(C(F)(F)F)cc4c32)CC1` (stereo not shown) [Example 123] belongs 0.784 nM.
Under setting [2], `O=C1NC2(CC2)CN(CCC2CCC(O)CC2)c2c1oc1ccc(C(F)(F)F)cc21` (stereo not shown) [Example 125] gave a Ki of 0.0592 nM.
As to `O=C1NC2(CC2)CN(CCC2CCC(O)CC2)c2c1oc1ccc(C(F)(F)F)cc21` (stereo not shown) [Example 126], the Ki under setting [1] was 0.464 nM.
On the same count and under the same terms, then `O=C1NCCN(CC(F)(F)C2CCC(CO)CC2)c2c1oc1ccc(C(F)(F)F)cc21` (stereo not shown) [Example 138], with 0.0151 nM; and `O=C1NCCN(CCC2CCC(O)(CF)CC2)c2c1oc1ccc(C(F)(F)F)cc21` (stereo not shown) [Example 144], with 0.801 nM; and `O=C1NCCN(CCC2CCC(CO)(CO)CC2)c2c1oc1ccc(C(F)(F)F)cc21` [Example 146], with 0.0231 nM.
For `O=C1NC2(CC2)CN(CC(F)(F)[C@H]2CC[C@H](O)CC2)c2c1oc1ccc(C(F)(F)F)cc21` [Example 149], under setting [1], the Ki came out at 0.0337 nM.
For the molecule `O=C1NCCN(CCC2CCC(F)(CO)CC2)c2c1oc1ccc(C(F)(F)F)cc21` (stereo not shown) [Example 150], the Ki under setting [1] was 0.13 nM.
The same measure, in the same setting: then `O=C1NCCN(CC(F)(F)C2CC(O)C2)c2c1oc1ccc(C(F)(F)F)cc21` (stereo not shown) [Example 151], with 0.957 nM.

For the origin of these results see US11643417B2, “Tetrahydrobenzofurodiazepinone compound and pharmaceutical use thereof” (priority 2020, dated 2023).
